Columns and labels:
[1] = tested on: TP53/CDKN2A^KO GEJ organoids; experiment: Average organoid size by phase-contrast imaging; type: cell-based, human; settings: WEB2086 at various concentrations vs vehicle control (0.1% DMSO)
Source text: (FIG. 4A) mRNA levels of PTAFR in TP53/CDKN2A^KO vs. control GEJ organoids (left) and normal GEJ vs. EAC tissues. (FIG. 4B) Knockdown of PTAFR mRNA by siRNAs in TP53/CDKN2A^KO GEJ organoids. (FIG. 4C) Average organoid size and (E) cell viability determined by phase-contrast imaging and WST1 assays, respectively. (FIG. 4D) Ki67 labeling images and (FIG. 4E) quantification obtained on Day 7. *P<0.05 vs. same-day siCtrl. Scale bar=100 μm. (FIG. 4F-FIG. 4H) Average organoid size and cell viability (H) determined by phase-contrast imaging and WST1 assays, respectively. (FIG. 4G and FIG. 4H) Ki67 labeling images and quantification obtained on Day 10. Scale bar=100 μm. *P<0.05 vs Ctrl-DMSO on the same day; +, P<0.05 vs. WEB 10 μM on the same day; #P<0.05 vs. WEB 15 μM on the same day;
GEJ organoids were established as described in FIG. 1A. Briefly, fresh endoscopic GEJ biopsies were preserved in ice-cold conditioned PBS (PBS containing 10 μM ROCK inhibitor Y27632, 2% (vol/vol) penicillin/streptomycin, and 1× Primocin) until further processing within 24 hours. After washing biopsies with conditioned PBS at least 5 times, samples were minced into fragments <1 mm^3 using microdissecting scissors. […]
Following centrifugation at 400 g at 4° C. for 3 minutes, pelleted cell clusters were resuspended in Matrigel. […] Culture medium was changed once every three days until the organoids were ready to passage.

[2] = tested on: TP53/CDKN2A^KO GEJ organoids; experiment: Organoid viability assay (WST-1 assay); type: cell-based, human
Procedure: To quantify metabolically active viable cells, organoids were seeded onto 96-well plates and cultured. At indicated time points, 10 μL per well of Cell Proliferation Reagent WST-1 assay kits were added to the 96-well plates and incubated with organoids for 90 minutes. After incubation, only media was transferred to the wells of a new 96-well plate, which was read at an absorbance of 450 nm by a Thermo Scientific Microplate Reader. All experiments were performed in triplicate.

[3] = tested on: Eso26 xenograft; experiment: Eso26 EAC cell line xenograft in nude mice; type: in vivo
Procedure: (§1) Organoid cultures and tissues were fixed overnight in 10% formalin at room temperature. Paraffin-embedded organoids and tissues were serially sectioned into 10-μm slices. Paraffin sections were deparaffinized, rehydrated, followed by either staining for hematoxylin and eosin (H&E), or antigen retrieval in sub-boiling 10-mM sodium citrate buffer pH 6.0 for 10 mins. For immunofluorescence (IF), slides were permeabilized in 0.5% TritonX-100 in PBS and blocked in 1% goat serum in PBS for 30 mins at room temperature. After blocking, slides were incubated with anti-Ki67 (1:200, Abcam) overnight in a humidified chamber at 4° C. Sections were washed by PBST (3 times for 5 mins each) and incubated with Alexa Fluor secondary antibodies (1:500) for 1 hr. After washing with PBST, slides were mounted with Fluoroshied with DAPI (Sigma).
Immunohistochemistry was performed using the automated Bond-Max autostainer by Leica for the following antibodies: AE1/AE3 (1:200, Santa Cruz). Images were acquired with a Lecia Inverted Confocal SP8 (Johns Hopkins Medicine Ross Imaging Center). Reagents used here are listed in the Key Resources Table.
(§2) All procedures and experimental protocols involving mice were approved by the Animal Experimental Committee of the Johns Hopkins University School of Medicine. For xenotransplantation of organoids, 2×10^6 organoid cells or ESO26 cells resuspended in cold 50% Matrigel were injected into the axillary of nude mice. For the WEB2086 treatment assay, 5 mg/kg.d of WEB2086 or vehicle control (1.25% DMSO in PBS) was administered by intraperitoneal injection every two days for 3 weeks. Xenograft size was measured twice a week. The xenograft volume (V) was monitored by measuring the length (L) and width (W) with a caliper based on the formula V=1/2×(L×W^2). Mice were sacrificed at the end of the experiment, and xenografts were excised for further analyses.

[4] = molecular target: TP53/CDKN2A^KO GEJ organoids; experiment: Ki67 immunofluorescence labeling index; type: cell-based, human; settings: WEB2086 at various concentrations vs vehicle control (0.1% DMSO); Day 10
Procedure: as §1

[5] = tested on: TP53/CDKN2A^KO GEJ organoids xenograft; experiment: Xenotransplantation of TP53/CDKN2A^KO organoid cells in nude mice; type: in vivo; settings: 5 mg/kg.d intraperitoneal every two days for 3 weeks; 3-month observation; vs 1.25% DMSO
Procedure: as §2

[6] = WEB2086 5 mg/kg.d intraperitoneal every two days for 3 weeks vs vehicle

With Cc1nnc2n1-c1sc(CCC(=O)N3CCOCC3)cc1C(c1ccccc1Cl)=NC2 [WEB2086] the organoid size [1] was “significantly reduced”, the “metabolically active cells (WST-1), onset of decrease” value ([2]; WEB2086 at various concentrations vs 0.1% DMSO) was “began to decrease on day 4” and the “inhibitory effect on metabolically active cells (WST-1)” value ([2]; WEB2086 at various concentrations, day 7 and 10) was “time- and dose-dependent inhibitory effect”. For the same compound, the EAC xenograft growth [3, 6] was “significant suppression”, the EAC xenograft weight [3, 6] was “significant suppression” and the “Ki67 expression in tumor xenografts (IHC)” value ([3]; WEB2086 treated Eso26 tumor xenografts) was “downregulated expression”. The Ki-67 labeling index [4] was “significantly reduced” and the tumor formation [5] was “completely prevented tumor formation”.

— patent US20250283048A1, “PLATELET-ACTIVATING FACTOR BLOCKADE INHIBITS TUMOR GROWTH” (The Johns Hopkins University, priority 2022, published 2025)
